Reference: patent US12521395B2, “Gem-disubstituted heterocyclic compounds and their use as IDH inhibitors” (NERVIANO MEDICAL SCIENCES S.R.L., priority 2019, dated 2026)

Experiments:
IDH1^R132H = IDH1^R132H (Homo sapiens, UniProt O75874, R132H); experiment: NADPH depletion assay (diaphorase/resazurin), IDH1 R132H; format: biochemical; details: 15 min preincubation, 60 min reaction, room temperature
Protocol: (§1) IDH mutated enzyme activity converting alpha-ketoglutarate to 2-hydroxyglutaric acid is measured using a NADPH depletion assay. In the assay the remaining cofactor is measured at the end of the reaction with the addition of a catalytic excess of diaphorase and resazurin, to generate a fluorescent signal in proportion to the amount of NADPH remaining. IDH1 WT enzyme as well as mutated isoforms IDH1^R132H, IDH1^R132C, and IDH2^R172K enzymes are commercially available proteins (see e.g. Sino Biological, Abcam, Active Motif or Creative BioMart).
(§2) IDH1^R132H homodimer enzyme are diluted to 8 nM, in 10 μL of Assay Buffer (150 mM NaCl, 50 mM Tris-HCl pH 7.6, 10 mM MgCl2, 0.001% Triton X-100, 4 mM β-mercaptoethanol); 0.2 μL of test compound, previously serially diluted 1 to 3, >10 experimental points from 1 mM in DMSO, is added and the mixture is incubated for 15 minutes at room temperature. The reaction is started with the addition of 10 μL of Substrate Mix (12 μM NADPH, 3.4 mM alpha-ketoglutarate in Assay Buffer) and the mixture is incubated for 60 minutes at room temperature. The reaction is terminated with the addition of 5 μl of Detection Buffer (100 μg/mL diaphorase, 30 μM resazurin, in IX Assay Buffer), and is incubated for 15 minutes before reading on a ViewLux as platereader at Ex544/Em590.

IDH2^R172K = target: T1, IDH2^R172K (Homo sapiens, UniProt P48735, R172K); experiment: NADPH depletion assay (diaphorase/resazurin), IDH2 R172K; format: biochemical; details: IDH2^R172K 16 nM, alpha-ketoglutarate 0.55 mM
T1 sequence (P48735 40-452 R172K): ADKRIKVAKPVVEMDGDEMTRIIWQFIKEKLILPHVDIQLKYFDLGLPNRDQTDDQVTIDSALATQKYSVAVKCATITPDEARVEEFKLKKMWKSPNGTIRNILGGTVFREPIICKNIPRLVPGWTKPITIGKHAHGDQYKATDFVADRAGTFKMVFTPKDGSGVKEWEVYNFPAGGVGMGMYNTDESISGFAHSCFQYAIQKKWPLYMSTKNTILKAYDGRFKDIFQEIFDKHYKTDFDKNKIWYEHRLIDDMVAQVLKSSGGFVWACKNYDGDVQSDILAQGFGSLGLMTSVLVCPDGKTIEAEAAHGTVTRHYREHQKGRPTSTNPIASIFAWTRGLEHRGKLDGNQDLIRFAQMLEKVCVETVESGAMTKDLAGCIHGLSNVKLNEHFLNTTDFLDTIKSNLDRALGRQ
Protocol: as §1, §2
Compounds are assayed for their activity against IDH2^R172K following the same assay as above with the following modifications: IDH2^R172K and alpha-ketoglutarate final concentrations in the Assay Buffer is 16 nM and 0.55 mM, respectively.

IDH1 wild type enzyme = IDH1 wild type enzyme (Homo sapiens, UniProt O75874); experiment: Enzymatic assay for IDH1 wild-type (NADPH forming assay); format: biochemical; details: 0.016 nM IDH1WT, 15 min preincubation
Sequence of IDH1 wild type enzyme (O75874 whole entry): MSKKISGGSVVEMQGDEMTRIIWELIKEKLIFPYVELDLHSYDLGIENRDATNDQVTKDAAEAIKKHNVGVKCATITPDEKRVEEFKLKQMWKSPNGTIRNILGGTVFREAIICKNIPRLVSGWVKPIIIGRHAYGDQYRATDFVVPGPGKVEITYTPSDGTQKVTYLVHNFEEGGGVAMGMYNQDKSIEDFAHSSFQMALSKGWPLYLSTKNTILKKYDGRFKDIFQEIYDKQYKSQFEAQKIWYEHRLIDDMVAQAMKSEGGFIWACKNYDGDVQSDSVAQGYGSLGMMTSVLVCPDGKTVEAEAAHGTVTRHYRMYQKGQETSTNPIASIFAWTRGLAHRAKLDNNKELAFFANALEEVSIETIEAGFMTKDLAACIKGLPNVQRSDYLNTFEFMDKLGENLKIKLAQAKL
Protocol: IDH1WT enzymatic activity converting isocitric acid to alpha-ketoglutarate is measured using a NADPH forming assay. In the assay the forming cofactor is measured in continuous with the addition of a catalytic excess of diaphorase and resazurin, to generate a fluorescent signal in proportion to the amount of NADPH forming.
Compounds were preincubated with the enzyme, then the reaction was started by the addition of NADP+, isocitrate, diaphorase and a corresponding substrate, resazurin. Diaphorase reduces resazurin to the highly fluorescent resorufin with the concomitant oxidation of NADPH to NADP. Specifically, 0.2 μL of test compound, previously serially diluted 1 to 3, >10 experimental points from 1 mM in DMSO, was added to 0.016 nM IDH1WT enzyme in 10 μL of Assay Buffer (150 mM NaCl, 50 mM Tris-HCl pH 7.6, 10 mM MgCl2, 0.001% Triton X-100, 4 mM β-mercaptoethanol); the mixture is incubated for 15 minutes at room temperature. The reaction is started with the addition of 10 μL of Substrate Mix (400 μM NADP^+, 40 μM iso-citrate, 5 ugr/mL Diaphorase and 7 μM resazurin in Assay Buffer), the mixture is incubated at room temperature and the reaction is reading on a ViewLux as platereader at Ex544/Em590 in continuous.

IDH1^R132C = IDH1^R132C (Homo sapiens, UniProt O75874, R132C); experiment: NADPH depletion assay (diaphorase/resazurin), IDH1 R132C; format: biochemical; details: IDH1^R132C 2 nM, alpha-ketoglutarate 0.14 mM; read-out: IDH1^R132C IC50
Sequence of IDH1^R132C (O75874 whole entry R132C): as the sequence (O75874 whole entry) above, with R132C counted along it

[1] = system: cell lines HT-1080 (IDH1^R132C); experiment: Cellular assay: inhibition of 2HG production, LC-MS/MS; format: cell-based; details: Homo sapiens, 72 hr incubation, 2-HG in cell culture media, read-out: HT1080 2-HG IC50
Protocol: Cell lines HT-1080 (commercially available) are maintained in E-MEM 10% FCS and incubated at 37° C. in a humidified 5% CO2 atmosphere.
Cells are seeded into 96 well black flat bottom plates at a density of 500 cells/well in 100 μL complete medium. After 24 hr the medium is replaced with 200 μL of fresh medium and compounds (dissolved into DMSO) are administrated to the cells using D300E Digital Dispenser (Tecan).
After 72 hr of incubation 100 μL from each well are collected and used for 2HG (R(−)-2-hydroxyglutarate) quantification. Levels of 2-HG in cell culture media are determined by LC-MS/MS. Cell supernatants (100 μL/well) are treated with 1 M aqueous trichloroacetic acid containing 130 μM of the internal standard 2-HG-d3 (20 μL/well) in a 96-well plate. The plates are sealed, mildly vortexed for 60 minutes, centrifuged at 4,000 RPM for 15 minutes, placed in a refrigerated autosampler taking care not to shake them, and aliquots of the upper part of the samples are directly injected in the chromatographic system. Calibration standards are obtained by ten folds dilution of aqueous 2-HG stock solutions with blank cell culture medium and denatured exactly in the same way as described above for samples. Samples and standards are assayed for 2-HG by reversed phase chromatography on a C18 column eluted with aqueous 0.15% formic acid and briefly washed with 90% methanol at the end of the run. 2-HG is determined by negative ion electrospray ionization with the internal standard method on a triple quadrupole mass spectrometer monitoring the MRM transitions 147>129 (2-HG) and 150>132 (2-HG-d3).
2-HG inhibition was calculated by comparing treated versus control data using Assay Explore (Symyx) software, with IC50 determined using a sigmoidal fitting algorithm.

Sequence of IDH1^R132H (O75874 whole entry R132H, canonical isoform): as the sequence (O75874 whole entry) above, with R132H counted along it

IC50 (IDH1^R132H): 6.4 nM
IC50 (IDH2^R172K): 291 nM
IC50 (IDH1 wild type enzyme): 364 nM
IC50 (IDH1^R132C): 4.8 nM
IC50 [1]: 2.6 nM
Structure (SMILES): C=CC(=O)N1CCN(C2(c3ccc([C@H](C)Nc4cc5c(ccc(=O)n5C(C)C)cn4)cc3)CCOCC2)CC1 [cpd 11, 7-{[(1S)-1-{4-[4-(4-acryloylpiperazin-1-yl)tetrahydro-2H-pyran-4-yl]phenyl}ethyl]amino}-1-(propan-2-yl)-1,6-naphthyridin-2(1H)-one]
